Assay results reported in patent US7098241B2, “Thiophene hydroxamic acid derivatives” (Hoffmann-La Roche Inc., priority 2002, dated 2006).
pIC50: −log10 of the molar value.

Experiments:
[1] = system: acetylated histone H3 in HT29 human colon carcinoma xenografts; experiment: Acetylation levels of histone H3 in HT29 tumor bearing mice; type: in vivo, NMRI nude mice; settings: for acetylated H3, BLU/1 μg histone protein: HT29 xenograft, mean; for acetylated H3, BLU % (BLU percent versus vehicle control): vehicle = 100
Protocol: Determination of Acetylation Levels of Histone H3 in Tumor Bearing Mice
The HT-29 cell line is derived from a human colon adenocarcinoma and was obtained from ATCC and kept in an in house working cell bank for pharmacological use. Cells were cultured in RPMI1640/2 mM L-Glutamin medium supplemented with 10% heat inactivated FCS. For inoculation HT29 tumor cells are removed (Trypsin-EDTA, 50 U/mg) from culture flasks and transferred into culture medium (RPMI 1640, 10% heat inactivated FCS), washed and resuspended in sterile PBS to achieve a final cell concentration of 5×10^6/100 μl. Cell suspension was carefully mixed by regular shaking to avoid cell aggregation and filled into a 1.0 ml graded syringe. After s.c. inoculation of HT29 human colon carcinoma cells (5×10^6/100 μl) in the right upper quarter of ventral breast region of NMRI nude mice, animals were inspected 2–3 times per week until xenografts reached a volume of roughly 1000 mm^3 or more, sufficient for analysis of histone acetylation. After single i.p. application of 400 mg/kg of the compound of example 1, formulated as microsuspension in 7.5% modified gelatin with 0.22% NaCl solution, the respective group of animals was sacrificed 3, 6, 12, and 24 h after dosing. Tumors were excised for analysis of acetylated histones (H3). An aliquot of tumors (ca. 200 mg) was analyzed for acetylated H3. Histones were extracted from xenografts by standardized methods (Richon, V. M., et al., PNAS 97 (2000) 10014–10019; Yoshida, M., et al., J. Biol. Chem. 265 (1990) 17174–17179), separated and acetylated H3 identified by Slot Blot and Immuno Blot techniques (SB-IB, Bio-Rad Laboratories GmbH, Munich, Germany) using anti-acetyled-H3 Pabs (UpState Biotechnology, Cat. #06-599). Histone protein was determined (Pierce Kit) and adjusted to 3 mg/ml to apply a standardized amount of 1 μg histone protein for H3 analysis in SB-IB. Quantification of acetylated H3 was performed by ECL (Enhanced Chemo Luminescence, Amersham Pharmacia, Hybond™ ECL™ Nitrocellulose membrane) measuring bioluminescence with the Lumi-Imager instrument (Roche Diagnostics). Data are expressed either as BLU/μg histone protein (BLU=Bio-Luminescence-Units), or as BLU percent versus vehicle control. After single administration of the compound of example 1, there was a marked and significant increase of acetylated H3 lasting for up to 24 h compared to the vehicle groups. The maximum acetylation was attained 6 h after dosing. A tabulated summary of the mean values and percentual changes are depicted below.

recombinant HDAC-1 = target: T1, recombinant HDAC-1 (Homo sapiens, UniProt Q13547); experiment: HDAC biochemical quench assay; settings: recombinant HDAC-1 purified from HEK 293 cells, 1 uM peptide substrate, 90 min at room temperature
T1 construct: made in house; host or cells: HEK 293 cells
T1 sequence (Q13547 whole entry, species assumed): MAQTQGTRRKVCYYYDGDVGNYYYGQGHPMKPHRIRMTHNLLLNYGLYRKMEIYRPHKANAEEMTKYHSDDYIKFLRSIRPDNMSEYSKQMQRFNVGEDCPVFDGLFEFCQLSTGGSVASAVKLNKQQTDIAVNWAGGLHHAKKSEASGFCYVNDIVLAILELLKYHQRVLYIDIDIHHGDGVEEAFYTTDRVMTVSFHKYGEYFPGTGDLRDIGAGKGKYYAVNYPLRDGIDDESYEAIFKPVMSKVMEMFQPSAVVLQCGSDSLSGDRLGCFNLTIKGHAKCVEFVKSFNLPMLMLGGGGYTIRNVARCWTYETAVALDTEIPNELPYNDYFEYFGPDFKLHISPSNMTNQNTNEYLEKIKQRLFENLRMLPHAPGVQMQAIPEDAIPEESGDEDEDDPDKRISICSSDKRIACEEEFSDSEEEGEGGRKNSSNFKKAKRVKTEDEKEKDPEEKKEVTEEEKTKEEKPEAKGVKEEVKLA
Text: The function of histone deacetylase (HDAC) is the deacetylation of lysines in e.g. histone H4. A peptide of 17 amino acids derived from histone H4 was labeled with TAMRA at the C-terminus and QSY-7 at the N-terminus and was used as a substrate (TAMRA-first17 aa of histone H4-QSY7). Following deacetylation by HDAC, the enzyme Lys C is able to cleave the peptide after lysine. […] Inhibition of HDAC by compounds results in low signals because Lys C could not cleave the substrate and the quench effect persists.
For dose response curves, 10 concentrations were diluted 1:3 starting at 30 uM. 10 ul compound dilution were put into each well of a 384 well plate. 10 ul HDAC were added (recombinant HDAC-1 purified from HEK 293 cells; enzyme activity has to be assessed for each preparation). 10 ul peptide substrate was added (1 uM final concentration, derived from 1 mM stock solution diluted 1:1000 in test buffer). After 90 min incubation at room temperature, the reaction was stopped by addition of 20 ul test buffer including 3 ug/ml Lys C and 0.075% SDS. After overnight incubation the fluorescence signal of TAMRA was measured (Victor 2 from Wallac, absorption 544 nm, emission 590 nm). The O.D. of DMSO-treated control wells is 100%, the % inhibition of compound treated wells is calculated in relation to 100%. Based on 10 concentrations a IC50 curve is generated by using XL.fit3.
Test buffer used: a mixture of 10 mM Hepes pH8, 10 mM NaCl, 10% Glycerol, 0.005% Triton X100, 0.1 mM EDTA, 0.1 mM TCEP. As plates were used 384 well plates (black, Greiner, 781077).

[2] = 3 h after single i.p. 400 mg/kg
[3] = 6 h after single i.p. 400 mg/kg
[4] = 12 h after single i.p. 400 mg/kg
[5] = 24 h after single i.p. 400 mg/kg

- pIC50 (recombinant HDAC-1): 8.47
Structure (SMILES): C[C@@H](NC(=O)c1ccc(C(=O)NO)s1)c1ccccc1 [Example 1, (R)-thiophene-2,5-dicarboxylic acid 2-hydroxyamide 5-[(1-phenyl-ethyl)-amide]]
- acetylated H3, BLU/1 μg histone protein [1, 2]: 57824 BLU/1 μg
- acetylated H3, BLU % (BLU percent versus vehicle control) [1, 2]: 466%
- acetylated H3, BLU/1 μg histone protein [1, 3]: 98717 BLU/1 μg
- acetylated H3, BLU % (BLU percent versus vehicle control) [1, 3]: 502%
- acetylated H3, BLU/1 μg histone protein [1, 4]: 75378 BLU/1 μg
- acetylated H3, BLU % (BLU percent versus vehicle control) [1, 4]: 447%
- acetylated H3, BLU/1 μg histone protein [1, 5]: 40965 BLU/1 μg
- acetylated H3, BLU % (BLU percent versus vehicle control) [1, 5]: 269%
- duration of marked and significant increase of acetylated H3 compared to vehicle ([1]; single i.p. 400 mg/kg): up to 24 h
- time of maximum acetylation after dosing ([1]; single i.p. 400 mg/kg): 6 h
